Test results as given in the NIST ThermoML archive (doi:10.1021/je300945r).

F/C=C/C(F)(F)F [trans-1,3,3,3-tetrafluoropropene]
Conditions | mass density [kg/m3]
242.91 K, 56.6 kPa, Gas, isochoric method | 3.322
242.91 K, 56.7 kPa, Gas, isochoric method | 3.322
252.89 K, 59.4 kPa, Gas, isochoric method | 3.322
252.9 K, 59.4 kPa, Gas, isochoric method | 3.322
262.9 K, 62 kPa, Gas, isochoric method | 3.311
262.91 K, 61.9 kPa, Gas, isochoric method | 3.311
262.94 K, 139.4 kPa, Gas, isochoric method | 7.692
262.95 K, 139.4 kPa, Gas, isochoric method | 7.692
272.84 K, 64.4 kPa, Gas, isochoric method | 3.311
272.85 K, 64.4 kPa, Gas, isochoric method | 3.311
272.87 K, 145.5 kPa, Gas, isochoric method | 7.634
282.6 K, 151.4 kPa, Gas, isochoric method | 7.634
282.63 K, 66.9 kPa, Gas, isochoric method | 3.311
282.66 K, 238.8 kPa, Gas, isochoric method | 12.5
283.14 K, 1620 kPa, Liquid, Vibrating tube method | 1214.3
283.14 K, 2638 kPa, Liquid, Vibrating tube method | 1218.5
283.14 K, 3662 kPa, Liquid, Vibrating tube method | 1222.4
283.14 K, 5710 kPa, Liquid, Vibrating tube method | 1229.8
283.14 K, 6721 kPa, Liquid, Vibrating tube method | 1233.2
283.14 K, 7725 kPa, Liquid, Vibrating tube method | 1236.6
283.14 K, 11789 kPa, Liquid, Vibrating tube method | 1249.5
283.14 K, 12805 kPa, Liquid, Vibrating tube method | 1252.4
283.14 K, 15859 kPa, Liquid, Vibrating tube method | 1261.2
283.14 K, 16870 kPa, Liquid, Vibrating tube method | 1263.9
283.14 K, 18876 kPa, Liquid, Vibrating tube method | 1269.4
283.14 K, 20909 kPa, Liquid, Vibrating tube method | 1274.5
283.15 K, 619 kPa, Liquid, Vibrating tube method | 1210.5
283.15 K, 4689 kPa, Liquid, Vibrating tube method | 1226.1
283.15 K, 8745 kPa, Liquid, Vibrating tube method | 1240
283.15 K, 9760 kPa, Liquid, Vibrating tube method | 1243.2
283.15 K, 10765 kPa, Liquid, Vibrating tube method | 1246.5
283.15 K, 13827 kPa, Liquid, Vibrating tube method | 1255.7
283.15 K, 14841 kPa, Liquid, Vibrating tube method | 1258.4
283.15 K, 17875 kPa, Liquid, Vibrating tube method | 1266.7
283.15 K, 19891 kPa, Liquid, Vibrating tube method | 1272
283.15 K, 21921 kPa, Liquid, Vibrating tube method | 1277.1
283.15 K, 22932 kPa, Liquid, Vibrating tube method | 1279.6
283.15 K, 23948 kPa, Liquid, Vibrating tube method | 1281.9
283.15 K, 24959 kPa, Liquid, Vibrating tube method | 1284.4
283.15 K, 25966 kPa, Liquid, Vibrating tube method | 1286.7
283.15 K, 26982 kPa, Liquid, Vibrating tube method | 1289.1
283.15 K, 27984 kPa, Liquid, Vibrating tube method | 1291.3
283.15 K, 28987 kPa, Liquid, Vibrating tube method | 1293.4
283.15 K, 30001 kPa, Liquid, Vibrating tube method | 1295.7
283.15 K, 31009 kPa, Liquid, Vibrating tube method | 1297.8
283.15 K, 32017 kPa, Liquid, Vibrating tube method | 1300.1
283.15 K, 33020 kPa, Liquid, Vibrating tube method | 1302.1
283.15 K, 34022 kPa, Liquid, Vibrating tube method | 1304.2
292.54 K, 157.2 kPa, Gas, isochoric method | 7.634
292.56 K, 248.7 kPa, Gas, isochoric method | 12.5
292.56 K, 248.8 kPa, Gas, isochoric method | 12.5
292.76 K, 366.1 kPa, Gas, isochoric method | 19.231
292.83 K, 415.4 kPa, Gas, isochoric method | 22.222
293.14 K, 778 kPa, Liquid, Vibrating tube method | 1179.9
293.14 K, 1644 kPa, Liquid, Vibrating tube method | 1184.2
293.14 K, 2650 kPa, Liquid, Vibrating tube method | 1188.7
293.14 K, 4727 kPa, Liquid, Vibrating tube method | 1197.6
293.14 K, 5738 kPa, Liquid, Vibrating tube method | 1201.8
293.14 K, 6755 kPa, Liquid, Vibrating tube method | 1205.9
293.14 K, 7761 kPa, Liquid, Vibrating tube method | 1209.7
293.14 K, 8772 kPa, Liquid, Vibrating tube method | 1213.4
293.14 K, 10798 kPa, Liquid, Vibrating tube method | 1220.7
293.14 K, 12817 kPa, Liquid, Vibrating tube method | 1227.5
293.14 K, 13830 kPa, Liquid, Vibrating tube method | 1230.8
293.14 K, 15838 kPa, Liquid, Vibrating tube method | 1236.9
293.14 K, 16853 kPa, Liquid, Vibrating tube method | 1240.1
293.14 K, 17857 kPa, Liquid, Vibrating tube method | 1243
293.14 K, 20900 kPa, Liquid, Vibrating tube method | 1251.6
293.14 K, 21921 kPa, Liquid, Vibrating tube method | 1254.3
293.14 K, 22938 kPa, Liquid, Vibrating tube method | 1257.2
293.14 K, 23953 kPa, Liquid, Vibrating tube method | 1259.7
293.14 K, 24957 kPa, Liquid, Vibrating tube method | 1262.3
293.14 K, 31009 kPa, Liquid, Vibrating tube method | 1277.1
293.14 K, 32027 kPa, Liquid, Vibrating tube method | 1279.3
293.15 K, 69.4 kPa, Gas, isochoric method | 3.311
293.15 K, 3682 kPa, Liquid, Vibrating tube method | 1193.3
293.15 K, 9788 kPa, Liquid, Vibrating tube method | 1217.1
293.15 K, 11799 kPa, Liquid, Vibrating tube method | 1223.9
293.15 K, 14835 kPa, Liquid, Vibrating tube method | 1233.8
293.15 K, 18879 kPa, Liquid, Vibrating tube method | 1246.2
293.15 K, 19891 kPa, Liquid, Vibrating tube method | 1248.9
293.15 K, 25973 kPa, Liquid, Vibrating tube method | 1264.9
293.15 K, 26985 kPa, Liquid, Vibrating tube method | 1267.4
293.15 K, 27991 kPa, Liquid, Vibrating tube method | 1270
293.15 K, 28993 kPa, Liquid, Vibrating tube method | 1272.4
293.15 K, 30001 kPa, Liquid, Vibrating tube method | 1274.8
293.15 K, 33027 kPa, Liquid, Vibrating tube method | 1281.7
293.15 K, 34035 kPa, Liquid, Vibrating tube method | 1284
293.16 K, 69.4 kPa, Gas, isochoric method | 3.311
302.54 K, 258.5 kPa, Gas, isochoric method | 12.5
302.54 K, 258.6 kPa, Gas, isochoric method | 12.5
302.67 K, 71.8 kPa, Gas, isochoric method | 3.311
302.67 K, 162.7 kPa, Gas, isochoric method | 7.634
302.69 K, 162.7 kPa, Gas, isochoric method | 7.634
302.78 K, 381.8 kPa, Gas, isochoric method | 19.231
